Values quoted from earlier work in article PMC8513935.

test: derived by the authors as gas->solvent minus gas->water (a hypothetical dry solvent; the ESI), not a two-phase measurement; conditions: Acetone, 25 C

| log K of transfer, water to solvent [log10 K] | Structure (SMILES) |
| --- | --- |
| 1.24 | C |

same assay, conditions: Butan-1-ol, 25 C

| log K of transfer, water to solvent [log10 K] | Structure (SMILES) |
| --- | --- |
| 1.15 | C |

same assay, conditions: Butyronitrile, 25 C

| Structure (SMILES) | log K of transfer, water to solvent [log10 K] |
| --- | --- |
| C=CCCCCCC | 4.72 |

same assay, conditions: CCl4, 25 C

| log K of transfer, water to solvent [log10 K] | Structure (SMILES) |
| --- | --- |
| 1.32 | C |

same assay, conditions: Chlorobenzene, 25 C

| log K of transfer, water to solvent [log10 K] | Structure (SMILES) |
| --- | --- |
| 1.13 | C |

same assay, conditions: Decan-1-ol, 25 C

| Structure (SMILES) | log K of transfer, water to solvent [log10 K] |
| --- | --- |
| CCCCCCCCCCO | 4.36 |
| C | 1.05 |

same assay, conditions: Diethyl Ether, 25 C

| log K of transfer, water to solvent [log10 K] | Structure (SMILES) |
| --- | --- |
| 1.48 | C |

same assay, conditions: Ethanol, 25 C

| log K of transfer, water to solvent [log10 K] | Structure (SMILES) |
| --- | --- |
| 1.17 | C |

same assay, conditions: Heptan-1-ol, 25 C

| log K of transfer, water to solvent [log10 K] | Structure (SMILES) |
| --- | --- |
| 3.74 | CC1CCCC1 |
| 1.11 | C |

same assay, conditions: Hexadecane, 25 C

| Structure (SMILES) | log K of transfer, water to solvent [log10 K] |
| --- | --- |
| C/C=C\C | 2.73 |
| O=C1CCCCN1 | -2.79 |
| C=CCCCCCC | 4.98 |
| CCCCCCCCCCO | 2.94 |
| CC1CCCC1 | 4.07 |
| CCCCF | 2.06 |
| C | 1.14 |

same assay, conditions: Hexan-1-ol, 25 C

| log K of transfer, water to solvent [log10 K] | Structure (SMILES) |
| --- | --- |
| 1.12 | C |

same assay, conditions: Hexane, 25 C

| Structure (SMILES) | log K of transfer, water to solvent [log10 K] |
| --- | --- |
| CCCCCCCCCCO | 2.97 |
| C | 1.44 |

same assay, conditions: Methanol, 25 C

| log K of transfer, water to solvent [log10 K] | Structure (SMILES) |
| --- | --- |
| 1.19 | C |

same assay, conditions: Octan-1-ol(dry), 25 C

| Structure (SMILES) | log K of transfer, water to solvent [log10 K] |
| --- | --- |
| C=CCCCCCC | 4.76 |
| C | 1.08 |

same assay, conditions: Pentan-1-ol, 25 C

| log K of transfer, water to solvent [log10 K] | Structure (SMILES) |
| --- | --- |
| 3.74 | CC1CCCC1 |
| 1.13 | C |

same assay, conditions: Perfluoroalkane, 25 C

| log K of transfer, water to solvent [log10 K] | Structure (SMILES) |
| --- | --- |
| 1.42 | C |

same assay, conditions: Propan-1-ol, 25 C

| Structure (SMILES) | log K of transfer, water to solvent [log10 K] |
| --- | --- |
| CCCCCCCCCCO | 4.46 |
| C | 1.17 |

same assay, conditions: Propan-2-ol, 25 C

| Structure (SMILES) | log K of transfer, water to solvent [log10 K] |
| --- | --- |
| CCCCCCCCCCO | 4.49 |
| C | 1.13 |

same assay, conditions: Propionitrile, 25 C

| Structure (SMILES) | log K of transfer, water to solvent [log10 K] |
| --- | --- |
| C=CCCCCCC | 4.73 |

same assay, conditions: Tetrahydrofuran, 25 C

| log K of transfer, water to solvent [log10 K] | Structure (SMILES) |
| --- | --- |
| 1.28 | C |

test: log P octanol/water from commercial databases, averaged (the ESI); conditions: Octanol (wet), 25 C

| Structure (SMILES) | log K of transfer, water to solvent [log10 K] |
| --- | --- |
| C/C=C\C | 2.33 |
| O=C1CCCCN1 | -0.465 |
| C=CCCCCCC | 4.57 |
| CCCCCCCCCCO | 4.12 |
| CC1CCCC1 | 3.37 |
| CCCCF | 2.29 |
| C | 1.09 |

test: experimental, compiled by the authors from the literature (the ESI cites the sources); conditions: Butyronitrile, 25 C

| Structure (SMILES) | log K of transfer, gas to solvent [log10 K] |
| --- | --- |
| C=CCCCCCC | 3.31 |

same assay, conditions: Decan-1-ol, 25 C

| Structure (SMILES) | log K of transfer, gas to solvent [log10 K] |
| --- | --- |
| CCCCCCCCCCO | 7.03 |

same assay, conditions: Heptan-1-ol, 25 C

| log K of transfer, gas to solvent [log10 K] | Structure (SMILES) |
| --- | --- |
| 2.57 | CC1CCCC1 |

same assay, conditions: Hexadecane, 25 C

| Structure (SMILES) | log K of transfer, gas to solvent [log10 K] |
| --- | --- |
| C/C=C\C | 1.74 |
| O=C1CCCCN1 | 4.18 |
| C=CCCCCCC | 3.57 |
| CCCCCCCCCCO | 5.61 |
| CC1CCCC1 | 2.91 |
| CCCCF | 1.77 |

same assay, conditions: Hexane, 25 C

| Structure (SMILES) | log K of transfer, gas to solvent [log10 K] |
| --- | --- |
| CCCCCCCCCCO | 5.64 |

same assay, conditions: Octan-1-ol, 25 C

| Structure (SMILES) | log K of transfer, gas to solvent [log10 K] |
| --- | --- |
| C=CCCCCCC | 3.35 |

same assay, conditions: Pentan-1-ol, 25 C

| log K of transfer, gas to solvent [log10 K] | Structure (SMILES) |
| --- | --- |
| 2.57 | CC1CCCC1 |

same assay, conditions: Propan-1-ol, 25 C

| Structure (SMILES) | log K of transfer, gas to solvent [log10 K] |
| --- | --- |
| CCCCCCCCCCO | 7.13 |

same assay, conditions: Propan-2-ol, 25 C

| Structure (SMILES) | log K of transfer, gas to solvent [log10 K] |
| --- | --- |
| CCCCCCCCCCO | 7.16 |

same assay, conditions: Propionitrile, 25 C

| Structure (SMILES) | log K of transfer, gas to solvent [log10 K] |
| --- | --- |
| C=CCCCCCC | 3.32 |

same assay, conditions: Water, 25 C

| Structure (SMILES) | log K of transfer, gas to solvent [log10 K] |
| --- | --- |
| C/C=C\C | -0.99 |
| O=C1CCCCN1 | 6.97 |
| C=CCCCCCC | -1.41 |
| CCCCCCCCCCO | 2.67 |
| CC1CCCC1 | -1.17 |
| CCCCF | -0.29 |
